Publication PMC9976898 (2022)

Test system: F7-40 (DNA, aptamer) CTTACGACCACCATGGGAATCGGGTGGCTTGGAGGTGCGT
Experiment: ITC
Settings: 20 mM NaCl, 0.5 mM MgCl2; 10 mM Tris-HCl pH 7.4, 1% methanol, 23 °C

C=C[C@H]1CN2CC[C@H]1C[C@H]2[C@H](O)c1ccnc2ccc(OC)cc12
KD: 62.1 ± 4.9 µM
